Laboratory results as given in patent US4463171A, “Derivatives of macrolide antibiotics” (Sanraku-Ocean Co., Ltd., priority 1982, dated 1984).
In brackets after ≈: the same amount, converted by molar mass.

Legend:
Test in all cases: Antibacterial activity (minimum inhibitory concentration), tube dilution method
Format in all cases: cell-based
[1] = test system: Staphylococcus aureus 209P; conditions: tube dilution method, brain heart infusion broth (pH 7.5), read-out: minimum inhibitory concentration, Staphylococcus aureus 209P
Experimental: (§1) The antibacterial activities of some typical compounds of this invention were measured by a tube dilution method in a brain heart infusion broth (pH 7.5) as a culture medium.

[2] = test system: Bacillus subtilis NRRL B558; conditions: Bacillus subtilis, NRRLB558; tube dilution method, brain heart infusion broth (pH 7.5); read-out: minimum inhibitory concentration, Bacillus subtilis NRRL B558
Experimental: as §1

[3] = test system: Staphylococcus aureus MS9861; conditions: Staphylococcus aureus, MS9861; tube dilution method, brain heart infusion broth (pH 7.5); read-out: minimum inhibitory concentration, Staphylococcus aureus MS9861
Experimental: as §1

[4] = test system: Klebsiella pneumoniae PCI602; conditions: PCI602, tube dilution method, brain heart infusion broth (pH 7.5), read-out: minimum inhibitory concentration, Klebsiella pneumoniae PCI602
Experimental: as §1

SMILES | MIC [1] | MIC [2] | MIC [3] | MIC [4]
CCC1OC(=O)CC(O)C(C)C(OC2OC(C)C(OC3CC(C)(O)C(OC(=O)CC(C)C)C(C)O3)C(N(C)C)C2O)C(CC=O)CC(C)C(=O)C=CC(C)=CC1CO (stereo not shown) [R1=H, R3=drawing 66, AR4=OH, 4"-O-isovaleryl-YO-9010] | 0.4 µg/mL (≈ 0.484 µM) | 0.8 µg/mL (≈ 0.968 µM) | 1.6 µg/mL (≈ 1.94 µM) | 1.6 µg/mL (≈ 1.94 µM)
CCC1OC(=O)CC(O)C(C)C(OC2OC(C)C(OC3CC(C)(O)C(OC(=O)CC(C)C)C(C)O3)C(N(C)C)C2O)C(CC=O)CC(C)C(=O)C=CC(C)=CC1COC(C)=O (stereo not shown) [R1=H, R3=drawing 75, AR4=OCOCH3, 23-O-Acetyl-4"-O-isovaleryl-YO-9010] | 0.8 µg/mL (≈ 0.922 µM) | 1.6 µg/mL (≈ 1.84 µM) | 6.3 µg/mL (≈ 7.26 µM) | 3.1 µg/mL (≈ 3.57 µM)
CCC1OC(=O)CC(O)C(C)C(OC2OC(C)C(OC3CC(C)(O)C(OC(=O)CSc4ccccc4)C(C)O3)C(N(C)C)C2O)C(CC=O)CC(C)C(=O)C=CC(C)=CC1CO (stereo not shown) [R1=H, R3=drawing 67, AR4=OH] | 0.4 µg/mL (≈ 0.448 µM) | < 0.2 µg/mL | 3.1 µg/mL (≈ 3.47 µM) | 3.1 µg/mL (≈ 3.47 µM)
CCC1OC(=O)CC(O)C(C)C(OC2OC(C)C(OC3CC(C)(O)C(O)C(C)O3)C(N(C)C)C2O)C(CC=O)CC(C)C(=O)C=CC(C)=CC1CSc1nnnn1C (stereo not shown) [R1=H, R3=H, AR4=drawing 81] | 0.8 µg/mL (≈ 0.952 µM) | < 0.2 µg/mL | 3.1 µg/mL (≈ 3.69 µM) | 12.5 µg/mL (≈ 14.9 µM)
CCC1OC(=O)CC(O)C(C)C(OC2OC(C)C(OC3CC(C)(O)C(O)C(C)O3)C(N(C)C)C2O)C(CC=O)CC(C)C(=O)C=CC(C)=CC1COC(=O)C(O)c1ccccc1 (stereo not shown) [R1=H, R3=H, AR4=drawing 73] | 0.4 µg/mL (≈ 0.457 µM) | < 0.2 µg/mL | 1.6 µg/mL (≈ 1.83 µM) | 12.5 µg/mL (≈ 14.3 µM)
CCC1OC(=O)CC(O)C(C)C(OC2OC(C)C(OC3CC(C)(O)C(OC(=O)CC(C)C)C(C)O3)C(N(C)C)C2O)C(CC=O)CC(C)C(=O)C=CC(C)=CC1COC(=O)CC(C)C (stereo not shown) [R1=H, R3=drawing 77, AR4=drawing 78] | 1.6 µg/mL (≈ 1.76 µM) | 0.8 µg/mL (≈ 0.879 µM) | 12.5 µg/mL (≈ 13.7 µM) | 6.3 µg/mL (≈ 6.92 µM)
CCC1OC(=O)CC(O)C(C)C(OC2OC(C)C(OC3CC(C)(O)C(O)C(C)O3)C(N(C)C)C2O)C(CC=O)CC(C)C(=O)C=CC(C)=CC1CI (stereo not shown) [R1=H, R3=H, AR4=I, 23-Deoxy-23-iodo-YO-9010] | 0.4 µg/mL (≈ 0.47 µM) | < 0.2 µg/mL | 3.1 µg/mL (≈ 3.64 µM) | 6.3 µg/mL (≈ 7.4 µM)
CCC1OC(=O)CC(O)C(C)C(OC2OC(C)C(OC3CC(C)(O)C(O)C(C)O3)C(N(C)C)C2O)C(CC=O)CC(C)C(=O)C=CC(C)=CC1COS(=O)(=O)c1ccc(C)cc1 (stereo not shown) [R1=H, R3=H, AR4=drawing 79] | 0.8 µg/mL (≈ 0.893 µM) | 0.4 µg/mL (≈ 0.446 µM) | 6.3 µg/mL (≈ 7.03 µM) | 25 µg/mL (≈ 27.9 µM)

Next, values leading:

MIC [1] | MIC [2] | MIC [3] | MIC [4] | SMILES
3.1 µg/mL (≈ 3.38 µM) | 3.1 µg/mL (≈ 3.38 µM) | 6.3 µg/mL (≈ 6.86 µM) | > 100 µg/mL | CCC1OC(=O)CC(O)C(C)C(OC2OC(C)C(OC3CC(C)(O)C(OC(=O)CC(C)C)C(C)O3)C(N(C)C)C2O)C(CC=O)CC(C)C(=O)C=CC(C)=CC1CSc1ccccc1 (stereo not shown) [R1=H, R3=drawing 82, AR4=drawing 83]
< 0.2 µg/mL | < 0.2 µg/mL | 0.8 µg/mL (≈ 0.994 µM) | 6.3 µg/mL (≈ 7.83 µM) | CCC1OC(=O)CC(O)C(C)C(OC2OC(C)C(OC3CC(C)(O)C(O)C(C)O3)C(N(C)C)C2O)C(CC=O)CC(C)C(=O)C=CC(C)=CC1CBr (stereo not shown) [R1=H, R3=H, AR4=Br, 23-Deoxy-23-bromo-YO-9010]
0.8 µg/mL (≈ 0.922 µM) | 0.4 µg/mL (≈ 0.461 µM) | 3.1 µg/mL (≈ 3.57 µM) | > 100 µg/mL | CCC1OC(=O)CC(O)C(C)C(OC2OC(C)C(OC3CC(C)(OC(C)=O)C(OC(=O)CC(C)C)C(C)O3)C(N(C)C)C2O)C(CC=O)CC(C)C(=O)C=CC(C)=CC1CO (stereo not shown) [(R2)=COCH3, R3=drawing 66, AR4=OH, 3"-O-acetyl-4"-O-isovaleryl-YO-9010]
0.4 µg/mL (≈ 0.419 µM) | 1.6 µg/mL (≈ 1.68 µM) | 3.1 µg/mL (≈ 3.25 µM) | > 100 µg/mL | CCC1OC(=O)CC(O)C(C)C(OC2OC(C)C(OC3CC(C)(O)C(OC(=O)CSc4ccccc4)C(C)O3)C(N(C)C)C2O)C(CC=O)CC(C)C(=O)C=CC(C)=CC1CBr (stereo not shown) [R1=H, R3=drawing 69, AR4=Br]
0.8 µg/mL (≈ 1.08 µM) | 1.6 µg/mL (≈ 2.16 µM) | 3.1 µg/mL (≈ 4.18 µM) | 12.5 µg/mL (≈ 16.8 µM) | CCC1OC(=O)CC(O)C(C)C(OC2OC(C)C(OC3CC(C)(O)C(O)C(C)O3)C(N(C)C)C2O)C(CC=O)CC(C)C(=O)C=CC(C)=CC1CO (stereo not shown) [Antibiotic YO9010, 23-demycinosyltylosin, reference compound]
